Test results as given in patent US11279733B2, “Peptide antibiotics” (priority 2017, dated 2022).
Converted amounts (≈) assume the structure as drawn. Like-named read-outs stand apart in the source and are kept apart here. Positions of bridges follow the written chain, without caps; N, C: chain ends. Non-standard residues stand in square brackets, D forms with d. Residues, ends and D or L forms follow the SMILES beside them. *: point of attachment. Decanoyl(3R-OH) = CCCCCCC[C@@H](O)CC(=O)*; Phe(4-NH2) = Nc1ccc(C[C@H](N)C(=O)O)cc1; dDab = NCC[C@@H](N)C(=O)O; Dab = NCC[C@H](N)C(=O)O

Legend:
[1] = test system: A. baumannii ATCC 19606; settings: ATCC 19606
Method in brief: (§1)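 Mid-log cultures grown in Mueller Hinton broth at 37° C were tested by 2-fold broth microdilution at 5×10^5 CFU/mL final. Compounds were dissolved in water and tested over a final range of 32 to 0.015 μg/mL.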

[2] = test system: E. coli ATCC 25922; settings: ATCC 25922
Method in brief: as §1

[3] = test system: K. pneumoniae ATCC 13883; settings: ATCC 13883
Method in brief: as §1

[4] = test system: K. pneumoniae ATCC 700603, MDR; settings: ATCC 700603
Method in brief: as §1

[5] = test system: K. pneumoniae ATCC BAA-2146, NDM-1 pos; settings: ATCC BAA-2146
Method in brief: as §1

[6] = test system: P. aeruginosa ATCC 27853; settings: ATCC 27853
Method in brief: as §1

[7] = test system: P. aeruginosa GN_043, PmxR
Method in brief: as §1

[8] = in vitro; settings: human
Protocol: Cytotoxicity of the synthesised peptides was evaluated by comparison with commercially available colistin (polymyxin E), polymyxin B (Sigma chemical Co., St. Louis, Mo., U.S.A.) and synthetic octapeptin C4 by conducting lactate dehydrogenase (LDH) assay. CC50 values calculated based on curve fitting of dose dependent inhibition of cell growth represented the cytotoxicity of the peptide. Human kidney 2 (HK2) cells were seeded as 2000 cells per well in a 384 well cell culture plate in a final volume of 20 μL in DMEM/F12 medium (Invitrogen #11330057), in which 10% of FBS was added. Cells were incubated for 24 hours at 37° C., 5% CO2 to allow cells to attach to the plates. Similar conditions were employed for HEK293 and HepG2 cytotoxicity assays.
Colistin and polymyxin B were tested from a range of 2 mM to 0.9 μM. 120 μL of the 1 mM stock solutions in water of each synthesised peptide were freeze-dried and processed for LDH assay. After freeze-dry procedure, the compounds were reconstituted into 600 μM solutions using culture media. All tested compounds were diluted from 600 μM to 0.27 μM in 3-fold dilutions. Then 20 μL of each dilution was added into 20 uL of culture medium in quadruplicate to reach the final concentrations. The cells were incubated with the compounds for 24 h at 37° C., 5% CO2. After the incubation, 5 μL of culture medium was added to 50 μL of LDH assay buffer and incubated for 1 h at room temperature. The absorbance was read at 450 nm using Polarstar. The data was then analysed by Prism software. […] Nephrotoxicity Assessment in Human Proximal Tubule Cells.

Row | SMILES | MIC A. baumannii ATCC 19606 [1] | MIC E. coli ATCC 25922 [2] | MIC K. pneumoniae ATCC 13883 [3] | MIC K. pneumoniae ATCC 700603, MDR [4] | MIC K. pneumoniae ATCC BAA-2146, NDM-1 pos [5] | MIC P. aeruginosa ATCC 27853 [6] | MIC P. aeruginosa GN_043, PmxR ([7]; P. aeruginosa GN_043, PmxR) | CC50 at 24 h [8] | MIC, A. baumannii ATCC 19606 [1] | MIC, E. coli ATCC 25922 [2] | MIC, K. pneumoniae ATCC 13883 [3] | MIC, K. pneumoniae ATCC 700603, MDR [4] | MIC, K. pneumoniae ATCC BAA-2146, NDM-1 pos [5] | MIC, P. aeruginosa ATCC 27853 [6] | MIC P. aeruginosa GN_043, PmxR ([7]; Table 6, polymyxin-resistant)
1 | CCCCCCC[C@@H](O)CC(=O)N[C@H](CO)C(=O)N[C@H]1CCNC(=O)[C@H]([C@@H](C)O)NC(=O)[C@H](CCN)NC(=O)[C@H](CCN)NC(=O)[C@H](CC(C)C)NC(=O)[C@@H](Cc2ccccc2)NC(=O)[C@H](CCN)NC1=O [compound 754, 3(R)OH-nC9CO-D-Ser-cyc[L-Dab-L-Dab-D-Phe-L-Leu-L-Dab-L-Dab-L-Thr]] ({Decanoyl(3R-OH)}-[dS][Dab][Dab][dF]L[Dab][Dab]T; lactam 2-C) | 16 µg/mL (≈ 15.7 µM) | 32 µg/mL (≈ 31.4 µM) | 32 µg/mL (≈ 31.4 µM) | 32 µg/mL (≈ 31.4 µM) | 32 µg/mL (≈ 31.4 µM) | 4 µg/mL (≈ 3.92 µM) | >32 µg/mL | 154 µM | – | – | – | – | – | – | –
2 | CCCCCCC[C@@H](O)CC(=O)N[C@H](CO)C(=O)N[C@H]1CCNC(=O)[C@H](CC(C)C)NC(=O)[C@H](CCN)NC(=O)[C@H](CCN)NC(=O)[C@H](CC(C)C)NC(=O)[C@@H](Cc2ccccc2)NC(=O)[C@H](CCN)NC1=O [compound 918, 3(R)OH-nC9CO-D-Ser-cyc[L-Dab-L-Dab-D-Phe-L-Leu-L-Dab-L-Dab-L-Leu]] ({Decanoyl(3R-OH)}-[dS][Dab][Dab][dF]L[Dab][Dab]L; lactam 2-C) | – | – | – | – | – | – | – | 113 µM | 4 µg/mL (≈ 3.88 µM) | 8 µg/mL (≈ 7.76 µM) | 8 µg/mL (≈ 7.76 µM) | 8 µg/mL (≈ 7.76 µM) | 4 µg/mL (≈ 3.88 µM) | 8 µg/mL (≈ 7.76 µM) | >32 µg/mL
3 | CCCCCCC[C@@H](O)CC(=O)N[C@H](CCN)C(=O)N[C@H]1CCNC(=O)[C@H]([C@@H](C)O)NC(=O)[C@H](Cc2ccc(N)cc2)NC(=O)[C@H](CCN)NC(=O)[C@H](CC(C)C)NC(=O)[C@@H](Cc2ccccc2)NC(=O)[C@H](CCN)NC1=O [compound 5605, 3(R)OH-nC9CO-D-Dab-cyc[L-Dab-L-Dab-D-Phe-L-Leu-L-Dab-L-4NH2Phe-L-Thr]] ({Decanoyl(3R-OH)}-[dDab][Dab][Dab][dF]L[Dab][Phe(4-NH2)]T; lactam 2-C) | – | 16 µg/mL (≈ 14.6 µM) | 16 µg/mL (≈ 14.6 µM) | 32 µg/mL (≈ 29.2 µM) | 16 µg/mL (≈ 14.6 µM) | 8 µg/mL (≈ 7.31 µM) | – | 115 µM | – | – | – | – | – | – | –
4 | CCCCCCC[C@@H](O)CC(=O)N[C@H](CCN)C(=O)N[C@H]1CCNC(=O)[C@H]([C@@H](C)O)NC(=O)[C@H](CCCNC(=N)N)NC(=O)[C@H](CCN)NC(=O)[C@H](CC(C)C)NC(=O)[C@@H](Cc2ccccc2)NC(=O)[C@H](CCN)NC1=O [compound 5606, 3(R)OH-nC9CO-D-Dab-cyc[L-Dab-L-Dab-D-Phe-L-Leu-L-Dab-L-Arg-L-Thr]] ({Decanoyl(3R-OH)}-[dDab][Dab][Dab][dF]L[Dab]RT; lactam 2-C) | – | >32 µg/mL | 32 µg/mL (≈ 29.4 µM) | 16 µg/mL (≈ 14.7 µM) | >32 µg/mL | 2 µg/mL (≈ 1.84 µM) | – | 137 µM | – | – | – | – | – | – | –
